Data published in US10870647B2, “Imidazopyridine derivative, method for preparing same, and pharmaceutical composition containing same as active ingredient for preventing or treating cancer” (DAEGU-GYEONGBUK MEDICAL INNOVATION FOUNDATION, priority 2016, dated 2020).

Columns and labels:
Experiment in all cases: Kinase selectivity, scanMAX Kinase assay panel (DiscoverX), % control at 1 uM
Format in all cases: binding
[1] = target: T1, scanMAX Kinase assay panel (Homo sapiens, UniProt O43318); conditions: TAK1; 1 uM; read-out: Percent Control (%)
T1 construct: purchased DiscoverX
T1 sequence (O43318 1-606): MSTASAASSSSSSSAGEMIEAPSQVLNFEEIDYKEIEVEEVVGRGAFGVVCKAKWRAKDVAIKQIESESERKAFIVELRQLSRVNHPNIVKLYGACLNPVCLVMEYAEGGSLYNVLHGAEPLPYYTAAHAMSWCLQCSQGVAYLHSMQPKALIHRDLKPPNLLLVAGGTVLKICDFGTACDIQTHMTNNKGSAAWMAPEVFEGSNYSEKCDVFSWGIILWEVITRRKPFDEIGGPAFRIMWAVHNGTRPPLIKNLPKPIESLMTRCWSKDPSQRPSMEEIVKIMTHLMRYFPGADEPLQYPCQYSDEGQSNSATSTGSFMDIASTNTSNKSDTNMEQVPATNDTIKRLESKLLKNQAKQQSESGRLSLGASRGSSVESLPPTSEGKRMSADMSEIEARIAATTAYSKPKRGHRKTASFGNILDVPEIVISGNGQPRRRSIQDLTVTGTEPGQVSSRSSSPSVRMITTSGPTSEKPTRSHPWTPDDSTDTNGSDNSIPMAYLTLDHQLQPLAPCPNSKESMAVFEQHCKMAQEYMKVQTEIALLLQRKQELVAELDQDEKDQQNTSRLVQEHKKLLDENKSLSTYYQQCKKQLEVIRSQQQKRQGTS
Method in brief: (§1)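 Activity was called for kinases showing % control under 35, calculated from compound signal relative to positive and negative controls. Each compound screened at 1 uM against the DiscoverX scanMAX panel.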

[2] = target: T2, scanMAX Kinase assay panel (Homo sapiens, UniProt P08581); conditions: MET; 1 uM; read-out: Percent Control (%)
T2 construct: purchased DiscoverX
Method in brief: as §1

[3] = target: T3, scanMAX Kinase assay panel (Homo sapiens, UniProt P08581, M1250T); conditions: MET (M1250T); 1 uM; read-out: Percent Control (%)
T3 construct: purchased DiscoverX
Method in brief: as §1

[4] = target: T4, scanMAX Kinase assay panel (Homo sapiens, UniProt P22607, G697C); conditions: FGFR3 (G697C); 1 uM; read-out: Percent Control (%)
T4 construct: purchased DiscoverX
Method in brief: as §1

[5] = target: T5, scanMAX Kinase assay panel (Homo sapiens, UniProt P23443); conditions: S6K1; 1 uM; read-out: Percent Control (%)
T5 construct: purchased DiscoverX
Method in brief: as §1

[6] = target: T6, scanMAX Kinase assay panel (Homo sapiens, UniProt Q7KZI7); conditions: MARK2; 1 uM; read-out: Percent Control (%)
T6 construct: purchased DiscoverX
Method in brief: as §1

[7] = target: T7, scanMAX Kinase assay panel (Homo sapiens, UniProt Q8IW41); conditions: MAPKAPK5; 1 uM; read-out: Percent Control (%)
T7 construct: purchased DiscoverX
T7 sequence (Q8IW41 1-473): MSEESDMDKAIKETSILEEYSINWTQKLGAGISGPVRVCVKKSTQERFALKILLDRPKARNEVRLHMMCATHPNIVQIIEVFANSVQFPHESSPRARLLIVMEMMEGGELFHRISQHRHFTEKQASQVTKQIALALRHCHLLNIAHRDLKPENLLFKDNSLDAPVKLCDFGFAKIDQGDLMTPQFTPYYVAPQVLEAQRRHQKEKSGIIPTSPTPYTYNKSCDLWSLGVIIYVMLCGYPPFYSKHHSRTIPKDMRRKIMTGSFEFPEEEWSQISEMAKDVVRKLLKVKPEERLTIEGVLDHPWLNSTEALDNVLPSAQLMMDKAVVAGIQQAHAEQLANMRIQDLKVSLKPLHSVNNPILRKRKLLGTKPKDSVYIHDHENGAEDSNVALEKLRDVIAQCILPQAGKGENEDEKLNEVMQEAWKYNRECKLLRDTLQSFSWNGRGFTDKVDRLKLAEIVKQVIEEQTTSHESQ
Method in brief: as §1

[8] = target: T8, scanMAX Kinase assay panel (Homo sapiens, UniProt Q92630); conditions: DYRK2; 1 uM; read-out: Percent Control (%)
T8 construct: purchased DiscoverX
T8 sequence (Q92630 1-601): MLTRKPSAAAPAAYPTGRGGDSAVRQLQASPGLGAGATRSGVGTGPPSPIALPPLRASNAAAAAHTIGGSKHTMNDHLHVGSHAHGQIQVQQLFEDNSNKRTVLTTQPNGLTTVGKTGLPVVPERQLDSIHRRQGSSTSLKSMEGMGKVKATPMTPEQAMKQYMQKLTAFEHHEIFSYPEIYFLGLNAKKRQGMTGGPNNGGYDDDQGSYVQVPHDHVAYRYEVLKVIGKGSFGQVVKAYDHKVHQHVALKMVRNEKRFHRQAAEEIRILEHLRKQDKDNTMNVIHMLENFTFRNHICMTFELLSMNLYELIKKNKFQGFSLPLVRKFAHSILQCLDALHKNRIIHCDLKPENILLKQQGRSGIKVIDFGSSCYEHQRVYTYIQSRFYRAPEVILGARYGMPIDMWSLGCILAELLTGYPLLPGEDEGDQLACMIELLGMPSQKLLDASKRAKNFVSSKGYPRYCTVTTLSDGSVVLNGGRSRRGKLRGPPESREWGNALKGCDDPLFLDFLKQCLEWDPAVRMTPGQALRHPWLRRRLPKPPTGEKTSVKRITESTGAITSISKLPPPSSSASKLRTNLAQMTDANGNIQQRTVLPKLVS
Method in brief: as §1

[9] = target: T9, scanMAX Kinase assay panel (Homo sapiens, UniProt Q92918); conditions: HPK1; 1 uM; read-out: Percent Control (%)
T9 construct: purchased DiscoverX
Method in brief: as §1

[10] = target: T10, scanMAX Kinase assay panel (Homo sapiens, UniProt Q9BYT3); conditions: STK33; 1 uM; read-out: Percent Control (%)
T10 construct: purchased DiscoverX
Method in brief: as §1

[11] = tested on: scanMAX Kinase assay panel; conditions: 1 uM
Method in brief: as §1

T2 sequence (P08581 25-1390): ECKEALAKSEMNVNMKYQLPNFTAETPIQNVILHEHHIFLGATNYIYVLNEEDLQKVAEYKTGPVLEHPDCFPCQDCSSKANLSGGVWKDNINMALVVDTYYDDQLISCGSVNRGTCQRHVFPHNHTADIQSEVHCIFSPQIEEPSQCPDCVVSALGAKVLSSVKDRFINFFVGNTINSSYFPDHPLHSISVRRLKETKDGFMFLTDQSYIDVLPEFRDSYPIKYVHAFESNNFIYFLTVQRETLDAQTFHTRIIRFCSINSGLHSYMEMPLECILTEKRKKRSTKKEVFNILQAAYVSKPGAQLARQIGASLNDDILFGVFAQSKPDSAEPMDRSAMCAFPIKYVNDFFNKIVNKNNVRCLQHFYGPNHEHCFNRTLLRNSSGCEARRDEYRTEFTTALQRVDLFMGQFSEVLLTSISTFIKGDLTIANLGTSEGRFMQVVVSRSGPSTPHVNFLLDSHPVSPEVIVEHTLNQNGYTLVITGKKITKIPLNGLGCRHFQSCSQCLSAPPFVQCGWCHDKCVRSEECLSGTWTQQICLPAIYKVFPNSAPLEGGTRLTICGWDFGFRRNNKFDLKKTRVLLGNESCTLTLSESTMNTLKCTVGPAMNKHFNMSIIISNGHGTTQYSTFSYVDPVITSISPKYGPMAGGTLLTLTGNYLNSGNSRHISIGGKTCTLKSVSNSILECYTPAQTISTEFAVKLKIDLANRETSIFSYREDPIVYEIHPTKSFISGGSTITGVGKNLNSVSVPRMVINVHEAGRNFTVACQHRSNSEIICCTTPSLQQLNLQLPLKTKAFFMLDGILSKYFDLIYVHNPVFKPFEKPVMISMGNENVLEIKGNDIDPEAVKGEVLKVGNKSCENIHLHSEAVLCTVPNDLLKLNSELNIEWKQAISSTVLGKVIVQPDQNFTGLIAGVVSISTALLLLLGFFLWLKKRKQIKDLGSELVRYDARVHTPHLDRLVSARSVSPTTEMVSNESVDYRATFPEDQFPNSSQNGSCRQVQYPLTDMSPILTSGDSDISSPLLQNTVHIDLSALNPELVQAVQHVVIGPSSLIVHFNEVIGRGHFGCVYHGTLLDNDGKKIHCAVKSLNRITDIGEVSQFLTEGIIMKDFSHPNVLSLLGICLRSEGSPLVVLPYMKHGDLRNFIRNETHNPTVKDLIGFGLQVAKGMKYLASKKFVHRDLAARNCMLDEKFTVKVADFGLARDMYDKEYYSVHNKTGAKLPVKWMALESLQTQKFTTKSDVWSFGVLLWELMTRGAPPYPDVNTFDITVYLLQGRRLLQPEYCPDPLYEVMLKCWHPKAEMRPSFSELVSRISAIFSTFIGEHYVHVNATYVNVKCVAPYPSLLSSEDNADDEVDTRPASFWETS
T9 sequence (Q92918 whole entry): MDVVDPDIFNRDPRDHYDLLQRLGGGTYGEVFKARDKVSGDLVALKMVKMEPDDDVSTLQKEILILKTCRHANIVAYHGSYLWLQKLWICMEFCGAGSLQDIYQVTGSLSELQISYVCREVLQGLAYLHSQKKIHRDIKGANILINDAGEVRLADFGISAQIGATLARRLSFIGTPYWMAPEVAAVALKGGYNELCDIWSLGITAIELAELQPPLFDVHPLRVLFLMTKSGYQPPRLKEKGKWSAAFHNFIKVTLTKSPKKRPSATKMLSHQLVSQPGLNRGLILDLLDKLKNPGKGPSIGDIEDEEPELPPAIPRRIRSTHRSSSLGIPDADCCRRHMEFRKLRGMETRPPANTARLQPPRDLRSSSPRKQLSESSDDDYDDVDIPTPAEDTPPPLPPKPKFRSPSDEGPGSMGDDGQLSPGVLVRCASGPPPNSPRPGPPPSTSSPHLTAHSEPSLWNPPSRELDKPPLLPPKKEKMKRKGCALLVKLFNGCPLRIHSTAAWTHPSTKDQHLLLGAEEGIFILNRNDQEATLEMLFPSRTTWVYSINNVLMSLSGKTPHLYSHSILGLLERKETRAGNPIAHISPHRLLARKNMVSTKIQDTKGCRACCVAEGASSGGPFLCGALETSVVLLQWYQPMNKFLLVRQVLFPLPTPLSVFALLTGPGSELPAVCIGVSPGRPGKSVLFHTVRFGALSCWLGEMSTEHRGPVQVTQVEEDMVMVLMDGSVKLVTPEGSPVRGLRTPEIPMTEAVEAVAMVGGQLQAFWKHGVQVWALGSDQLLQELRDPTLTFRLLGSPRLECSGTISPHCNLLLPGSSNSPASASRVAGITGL
T3 sequence (P08581 25-1390 M1250T): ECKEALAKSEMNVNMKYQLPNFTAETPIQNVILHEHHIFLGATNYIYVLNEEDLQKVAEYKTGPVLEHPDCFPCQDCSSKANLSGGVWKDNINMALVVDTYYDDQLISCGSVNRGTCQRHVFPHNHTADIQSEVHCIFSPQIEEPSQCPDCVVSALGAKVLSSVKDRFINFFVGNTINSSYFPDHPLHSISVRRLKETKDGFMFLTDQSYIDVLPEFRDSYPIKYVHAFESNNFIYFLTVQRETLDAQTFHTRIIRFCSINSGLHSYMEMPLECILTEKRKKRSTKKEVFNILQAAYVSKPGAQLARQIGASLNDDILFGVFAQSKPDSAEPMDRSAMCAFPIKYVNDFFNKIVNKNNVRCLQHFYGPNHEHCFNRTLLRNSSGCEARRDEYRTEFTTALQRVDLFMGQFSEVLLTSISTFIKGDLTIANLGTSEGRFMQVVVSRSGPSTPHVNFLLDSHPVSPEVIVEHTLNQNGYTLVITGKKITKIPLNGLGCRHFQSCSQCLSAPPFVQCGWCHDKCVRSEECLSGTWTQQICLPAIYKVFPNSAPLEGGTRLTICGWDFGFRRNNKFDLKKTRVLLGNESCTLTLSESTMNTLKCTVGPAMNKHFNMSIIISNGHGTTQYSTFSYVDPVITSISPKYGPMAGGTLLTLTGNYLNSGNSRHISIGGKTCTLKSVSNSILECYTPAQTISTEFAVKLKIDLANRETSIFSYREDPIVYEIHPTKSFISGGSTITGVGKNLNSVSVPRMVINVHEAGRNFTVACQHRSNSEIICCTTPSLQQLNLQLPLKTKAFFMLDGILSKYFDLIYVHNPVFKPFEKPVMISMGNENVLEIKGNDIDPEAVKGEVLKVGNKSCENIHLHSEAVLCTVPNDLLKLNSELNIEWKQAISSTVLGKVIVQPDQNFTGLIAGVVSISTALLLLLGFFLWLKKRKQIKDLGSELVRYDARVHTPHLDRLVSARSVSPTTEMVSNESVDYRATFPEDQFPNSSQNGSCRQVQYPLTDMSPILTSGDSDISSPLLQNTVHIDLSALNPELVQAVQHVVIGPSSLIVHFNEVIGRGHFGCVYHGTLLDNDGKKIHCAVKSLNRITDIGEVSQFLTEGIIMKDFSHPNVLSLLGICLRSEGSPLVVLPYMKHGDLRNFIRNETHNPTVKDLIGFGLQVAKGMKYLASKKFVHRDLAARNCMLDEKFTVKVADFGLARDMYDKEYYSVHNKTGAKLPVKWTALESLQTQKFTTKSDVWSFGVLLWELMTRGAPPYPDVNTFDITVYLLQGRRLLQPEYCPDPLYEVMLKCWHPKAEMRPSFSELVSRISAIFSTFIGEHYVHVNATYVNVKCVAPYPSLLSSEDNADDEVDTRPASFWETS
T6 sequence (Q7KZI7 whole entry): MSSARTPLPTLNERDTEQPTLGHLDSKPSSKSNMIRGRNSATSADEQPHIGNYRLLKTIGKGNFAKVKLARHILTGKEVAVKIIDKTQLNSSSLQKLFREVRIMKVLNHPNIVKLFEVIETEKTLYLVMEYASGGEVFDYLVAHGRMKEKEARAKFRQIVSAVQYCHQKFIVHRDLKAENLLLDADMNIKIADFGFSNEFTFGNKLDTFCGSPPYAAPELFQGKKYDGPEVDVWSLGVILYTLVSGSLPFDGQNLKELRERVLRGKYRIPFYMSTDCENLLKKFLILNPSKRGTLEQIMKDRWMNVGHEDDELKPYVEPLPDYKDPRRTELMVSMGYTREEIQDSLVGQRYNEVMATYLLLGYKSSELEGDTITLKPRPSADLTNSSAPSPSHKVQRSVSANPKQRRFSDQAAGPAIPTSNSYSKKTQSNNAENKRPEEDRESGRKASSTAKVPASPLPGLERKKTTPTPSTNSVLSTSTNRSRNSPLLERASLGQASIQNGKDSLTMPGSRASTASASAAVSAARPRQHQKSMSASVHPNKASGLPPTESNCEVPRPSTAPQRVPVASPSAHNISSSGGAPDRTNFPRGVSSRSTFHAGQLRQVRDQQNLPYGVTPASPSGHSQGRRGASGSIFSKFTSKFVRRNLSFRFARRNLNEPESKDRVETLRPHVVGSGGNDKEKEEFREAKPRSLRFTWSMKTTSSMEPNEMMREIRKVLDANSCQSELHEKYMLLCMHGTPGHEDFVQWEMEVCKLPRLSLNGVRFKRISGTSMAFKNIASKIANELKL
T10 sequence (Q9BYT3 whole entry): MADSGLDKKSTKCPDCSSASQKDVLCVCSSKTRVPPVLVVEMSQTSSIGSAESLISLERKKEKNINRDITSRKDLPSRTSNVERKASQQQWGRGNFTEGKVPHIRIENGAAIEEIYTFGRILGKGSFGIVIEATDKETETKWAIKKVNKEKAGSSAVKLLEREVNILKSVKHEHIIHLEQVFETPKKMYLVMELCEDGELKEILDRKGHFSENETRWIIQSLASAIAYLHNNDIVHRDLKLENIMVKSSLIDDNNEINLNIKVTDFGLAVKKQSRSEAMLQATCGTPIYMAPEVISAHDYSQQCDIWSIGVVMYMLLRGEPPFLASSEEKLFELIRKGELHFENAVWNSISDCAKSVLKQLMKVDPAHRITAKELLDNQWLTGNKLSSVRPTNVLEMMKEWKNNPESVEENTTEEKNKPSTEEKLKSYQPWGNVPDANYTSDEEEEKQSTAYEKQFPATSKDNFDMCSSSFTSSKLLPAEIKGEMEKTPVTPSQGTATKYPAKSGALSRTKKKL

Row | Structure (SMILES) | remaining binding at 1 µM [1] | remaining binding at 1 µM [2] | remaining binding at 1 µM [3] | remaining binding at 1 µM [4] | remaining binding at 1 µM [5] | remaining binding at 1 µM [6] | remaining binding at 1 µM [7] | remaining binding at 1 µM [8] | remaining binding at 1 µM [9] | remaining binding at 1 µM [10] | Percent Control (%) ([11]; EGFR (L747-E749del, A750P)) | Percent Control (%) ([11]; EGFR (L747-S752del, P753S)) | Percent Control (%) ([11]; EGFR (L747-T751del, Sins)) | Percent Control (%) ([11]; FLT3 (ITD)) | Percent Control (%) ([11]; FLT3 (ITD, D835V)) | Percent Control (%) ([11]; FLT3 (ITD, F691L))
1 | Cc1ccc(C(=O)Nc2ccc(CN3CCN(C)CC3)c(C(F)(F)F)c2)cc1C#Cc1cnc2c(Nc3cnn(C)c3)cccn12 [Example 1, 4-methyl-3-((8-((1-methyl-1H-pyrazol-4-yl)amino)imidazo[1,2-a]pyridin-3-yl)ethynyl)-N-(4-((4-methylpiperazin-1-yl)methyl)-3-(trifluoromethyl)phenyl)benzamide] | 0% | 18% | 32% | 3% | 14% | 73% | 100% | 75% | 1% | 5% | 3% | 1% | 2% | 1% | 20% | 2%
2 | Cc1cn(-c2cc(NC(=O)c3ccc(C)c(C#Cc4cnc5c(Nc6cnn(C)c6)cccn45)c3)cc(C(F)(F)F)c2)cn1 [Example 12, 4-methyl-N-(3-(4-methyl-1H-imidazol-1-yl)-5-(trifluoromethyl)phenyl)-3-((8-((1-methyl-1H-pyrazol-4-yl)amino)imidazo[1,2-a]pyridin-3-yl)ethynyl)benzamide] | 14% | 47% | 28% | 34% | 100% | 99% | 100% | 91% | 5% | 40% | 5% | 6% | 6% | 4% | 100% | 45%
3 | Cc1ccc(NC(=O)C2(C(=O)Nc3ccc(F)cc3)CC2)cc1C#Cc1cnc2c(Nc3cnn(C(C)C)c3)cccn12 [Example 78] | 76% | 100% | 91% | 96% | 100% | 89% | 100% | 94% | 78% | 100% | 100% | 87% | 100% | 71% | 35% | 31%
